US9657110B2, “Polypeptides and use thereof” (ASTON UNIVERSITY, priority 2011, dated 2017)
Substitutions are numbered along the chain they refer to. In names and notes the source's numbering stands. One block for each molecule: values may come before it.

Experiments:
HOB cells = test: Cell adhesion assay (attachment and spreading) on FN or TG-FN matrix with RGD or RAD peptide; format: cell-based, human; conditions: for effect of PKCα inhibitors on the compensatory effect of P1 peptide on RGD-induced loss of cell adhesion: Go6976 5 μM, GK21 8 μM, P1 100 ug/ml, FN; for effect on the compensatory effects of TG-FN on attachment and spreading in the presence of RGD: HOB cells on TG-FN, peptide 100-400 μg/ml, RGD 150 μg/ml
Procedure: The cell adhesion assay was carried out as previously described (Wang et al., 2010). Briefly, 96-well plastic tissue culture plates were coated with 5 μg/ml FN in 50 mM Tris-HCl, pH 7.4 at 4° C. overnight, after washing three times with 100 μl of 50 mM Tris-HCl, pH7.4, gplTG (20 μg/ml) in 2 mM EDTA in PBS, pH 7.4 was added to the wells for 1 h at 37° C. and the wells were washed three times with 50 mM Tris-HCl, pH7.4. Serum-starved (for 16 h) HOB cells with different treatments as introduced below in serum-free medium were detached by trypsinization and then treated with trypsin inhibitor. Cells were washed three times with serum free medium and seeded onto either FN or TG-FN matrix for 20-40 min. Peptides P1 or scrambled P1 (P1s), were added at concentrations between 100 μg/ml and 300 μg/ml. […] Attached cells were washed once with PBS, pH 7.4 and then fixed with 3.7% paraformaldehyde, further permeabilised with 0.1% (v/v) Triton® X-100 detergent in PBS, and co-stained with May-Grunwald and Giemsa stains as described previously (Jones et al., 1997). Images of stained cells from non-overlapping fields of view were photographed at 20× magnification and analyzed using the imaging analysis program Scion Image (National Institute of Health). Cell attachment and spreading were quantified, and the number of cells per image was assessed as described previously (Telci et al., 2008). Cell attachment on FN without peptide was considered as the control value for all the experiments unless stated otherwise. The mean number of attached cells form three wells was calculated and that of the control was considered as 100%. The mean number of attached cells (cell attachment) for each sample was then expressed as the percentage of cell attachment on FN. The mean percentage of attached cells that are spread (cell spreading) for each sample was determined separately, and the mean percentage of spread cells on FN control was expressed as 100%. The mean percentage of spread cells for each sample was then normalised against that of FN control Cell attachment on FN without the RGD peptide was considered as the control value for most of the experiments unless stated otherwise The mean number of attached cells from three wells was calculated and that of the control was considered as 100%. The mean number of attached cells (cell attachment) for each sample was then expressed as the percentage of cell attachment on FN. The mean percentage of attached cells that are spread (cell spreading) for each sample was determined separately, and the mean percentage of spread cells on the FN control was expressed as 100%. The mean percentage of spread cells for each sample was then normalised against that of FN control Cell pre-treatments included: PKCα inhibitor Go6976 (5 μM) or GK21 peptide (8 μM) for 1 h in serum-free medium prior to cell detachment; heparinase (15 mU/ml) or chondroitinase (15 mU/ml) to cells in suspension in serum free medium for 1 h. For the detection of the signalling molecules via Western blotting, the cell adhesion assay was performed in 60 mm Petri dishes and cells were collected into cell lysis buffer (Santa Cruz, UK) as described previously and pre-cleared by centrifugation at 300×g for 10 min. Western blotting was performed with specific anti-p-397 FAK or p-ERK1/2 antibodies. Membranes were stripped (Telci et al., 2008) and total FAK and ERK1/2 detected using anti-FAK and anti-ERK1/2 antibodies as listed in Table 2, while α-tubulin was used as an equal loading standard (Wang et al., 2011).
Cell adhesion and spreading assays were performed as described above in Example 1 method ‘Cell adhesion assay’

[1] = Binding of TG2 to heparin SEPHAROSE, elution with NaCl gradient; conditions: for binding to heparin SEPHAROSE (in words): compared with wt TG2; for NaCl concentration of optimum elution / major peak from heparin SEPHAROSE: lysate of HEK293T/17 cells, 0-1M NaCl gradient
Procedure: HEK cells, transiently transfected with wild-type and mutant TG2 were washed twice with ice cold PBS, pH 7.4 and lysed by the addition of 150 μl of 20 mM Tris-HCl pH 7.4, 10 mM EGTA, 2 mM EDTA, 1 mM NaF and 1 mM Na3VO4. After clarification by centrifugation, lysates were mixed with 450 μl of 50 mM Tris-HCl, 1 mM EDTA, 1 mM DTT, pH 7.5 and applied to a 5 ml Heparin SEPHAROSE® column (GE Healthcare) equilibrated in 50 mM Tris-HCl, 1 mM EDTA, 1 mM DTT pH 7.5 (buffer) at a flow rate of 1 ml/min. For the analysis of GTP-bound TG2 (closed conformation), lysates were pre-incubated for 1 h at room temperature with 0.5 mM GTP in 50 mM Tris-HCl, 2 mM MgCl2, 1 mM EDTA, 1 mM DTT pH 7.5. For the analysis of inhibitor-reacted TG2 (open conformation), lysates were incubated with 0.5 mM of irreversible inhibitor R281 (Griffin et al., 2008) and 10 mM CaCl2. The column was washed with 25 ml of buffer and protein was eluted with a linear gradient of increasing NaCl concentration (0-1M) in buffer. Fractions were assayed for TG2 activity and analysed for the presence of TG2 antigen by SDS-PAGE and Western blotting using CUB7402.

NIH 3T3 cells = test: Detection of TG2 at cell surface (biotinylation), in ECM and in culture medium of transfected cells; format: cell-based, mouse; conditions: transfected NIH 3T3 cells; for presence on the cell surface: biotinylation and Western blot, vs wild-type TG2
Procedure: Cell surface proteins were labelled by biotinylation as described previously (Wang et al., 2010). Briefly, cell monolayers were rinsed three times with ice-cold PBS pH 8.0 and labelled with 0.8 mM sulfo-NHS-LC-biotin dissolved in PBS pH 8.0 at 4° C. for 20 min. Cells were then washed with 50 mM Tris-HCl, pH 8.0 and lysed with 1% SDS at 4° C. in PBS pH8.0. Following denaturation at 95° C., cell lysates were clarified by centrifugation at 14,000×g at 20° C. and 200 μg of protein was incubated overnight at 4° C. with NEUTRAVIDIN® avidin protein-Agarose resin. After washing three times with PBS pH 8.0, the biotin-labelled proteins were dissolved in 2× Laemmli buffer separated by SDS-PAGE and subjected to Western blotting.
Following transfection, cells were incubated for 24 h with 10% (v/v) serum, which was replaced with 1% (v/v) serum and TG2 expression was allowed to proceed for a further 48 h. Proteins from 1 ml of medium were precipitated by the addition of ice cold 20% (w/v) trichloroacetic acid (TCA) to a final concentration of 10% (w/v) Pelleted proteins were then washed once with ice cold 10% (w/v) TCA, ethanol-acetone (1:1) and acetone, and resuspended in 2× Laemmli buffer (Sigma-Aldrich, UK) and analysed by SDS-PAGE and Western blot analysis using monoclonal anti-TG2 antibody (Cub7402). The remaining cells were detached with 2 mM EDTA in PBS, pH 7.4 and the ECM was extracted with 0.1% (w/v) deoxycholate in PBS, pH 7.4. The residual deoxycholate-insoluble ECM proteins were dissolved in 2× Laemmli buffer for further analysis by SDS-PAGE and Western blotting using Cub7402.

Molecule: Cn1c2ccccc2c2c3c(c4c5ccccc5n(CCC#N)c4c21)CNC3=O [Go6976, reference compound]
effect of PKCα inhibitors on the compensatory effect of P1 peptide on RGD-induced loss of cell adhesion (HOB cells): inhibition of the compensatory effect

Molecule: GENPIYKSAVTTVVNPIYEGKRQIKIWFQNRRMKWKK (listed as Homo sapiens) [GK21, reference compound]
effect of PKCα inhibitors on the compensatory effect of P1 peptide on RGD-induced loss of cell adhesion (HOB cells): inhibition of the compensatory effect

Molecule: GRDCSRRSS (listed as Homo sapiens) [fragment peptide derived from P1]
effect on the compensatory effects of TG-FN on attachment and spreading in the presence of RGD (HOB cells): able to inhibit the compensatory effects of TG-FN on attachment and spreading, in a dose-dependent manner

NaCl concentration of optimum elution / major peak from heparin SEPHAROSE [1]: 60 mM NaCl
Molecule: HS2: TG2 mutant K205A, R209A (NPKFLKNAGRDCSRRSS)
binding to heparin SEPHAROSE (in words) [1]: lost the capability to bind with high affinity to heparin
presence in spent culture medium (NIH 3T3 cells; Western blot): detectable
presence in the ECM (NIH 3T3 cells; Western blot): not detectable
presence on the cell surface (NIH 3T3 cells): detected but in reduced amounts

Molecule: NPKFLKNA (listed as Homo sapiens) [fragment peptide derived from P1]
effect on the compensatory effects of TG-FN on attachment and spreading in the presence of RGD (HOB cells): could not abrogate
concentration at which peptide was inhibitory to cell attachment and spreading (HOB cells; HOB cells, tested 100-400 μg/ml): above 200 μg/ml

NaCl concentration of major peak from heparin SEPHAROSE in the presence of GTP ([1]; 0.5 mM GTP, compact conformation): about 330 mM NaCl
NaCl concentration of major peak from heparin SEPHAROSE after reaction with inhibitor R281 ([1]; 0.5 mM R281, extended conformation): 250 mM NaCl
NaCl concentration of optimum elution / major peak from heparin SEPHAROSE [1]: 330 mM NaCl
B1: TG2: wild type human tissue transglutaminase expressed in transfected cells (protein)
chain: AEELVLERCDLELETNGRDHHTADLCREKLVVRRGQPFWLTLHFEGRNYEASVDSLTFSVVTGPAPSQEAGTKARFPLRDAVEEGDWTATVVDQQDCTLSLQLTTPANAPIGLYRLSLEASTGYQGSSFVLGHFILLFNAWCPADAVYLDSEEERQEYVLTQQGFIYQGSAKFIKNIPWNFGQFEDGILDICLILLDVNPKFLKNAGRDCSRRSSPVYVGRVVSGMVNCNDDQGVLLGRWDNNYGDGVSPMSWIGSVDILRRWKNHGCQRVKYGQCWVFAAVACTVLRCLGIPTRVVTNYNSAHDQNSNLLIEYFRNEFGEIQGDKSEMIWNFHCWVESWMTRPDLQPGYEGWQALDPTPQEKSEGTYCCGPVPVRAIKEGDLSTKYDAPFVFAEVNADVVDWIQQDDGSVHKSINRSLIVGLKISTKSVGRDEREDITHTYKYPEGSSEEREAFTRANHLNKLAEKEETGMAMRIRVGQSMNMGSDFDVFAHITNNTAEEYVCRLLLCARTVSYNGILGPECGTKYLLNLNLEPFSEKSVPLCILYEKYRDCLTESNLIKVRALLVEPVINSYLLAERDLYLENPEIKIRILGEPKQKRKLVAEVSLQNPLPVALEGCTFTVEGAGLTEEQKTVEIPDPVEAGEEVKVRMDLLPLHMGLHKLVVNFESDKLKAVKGFRNVIIGPA

binding to heparin SEPHAROSE (in words) [1]: bound heparin identically to TG2
B2: HS1: TG2 mutant K600A, R601A, K602A (protein, UniProt P21980 2-687, looked up, variant K600A R601A K602A)
Protein-glutamine …: B1 chain with K599A, R600A, K601A
presence on the cell surface (NIH 3T3 cells): greater levels

NaCl concentration of optimum elution / major peak from heparin SEPHAROSE [1]: 250 mM NaCl
B3: C277S: TG2 active site mutant, extended conformation (protein, UniProt P21980 2-687, looked up, variant C277S)
Protein-glutamine …: B1 chain with C276S
